According to patent US7915402B2, “Antioxidant inflammation modulators: oleanolic acid derivatives with saturation in the C-ring” (Reata Pharmaceuticals, Inc., priority 2008, dated 2011):
Converted amounts (≈) assume the structure as drawn.

Assays:
Ferritin heavy chain = assay: Induction of ferritin heavy chain mRNA (qPCR); assay type: cell-based, human; conditions: MDA-MB-435 cells, 16 hours
Protocol: FIG. 24. Induction of Ferritin Heavy Chain. MDA-MB-435 human melanoma cells were treated with vehicle (DMSO) or the indicated compounds and concentrations for 16 hours. Ferritin heavy chain mRNA levels were quantified using qPCR and were normalized relative to a DMSO-treated sample run in parallel. Values are averages of duplicate wells.
Nrf2 target gene induction. MDA-MB-435 human melanoma cells were treated with vehicle (DMSO) or the indicated compounds and concentrations for 16 hours. HO-1, thioredoxin reductase-1 (TrxR1), γ-glutamylcysteine synthetase (γ-GCS), and ferritin heavy chain mRNA levels were quantified using qPCR and were normalized relative to a DMSO-treated sample run in parallel. Values are averages of duplicate wells. Primer sequences are as follows.

[1] = CNS and lung tissue concentrations after oral dosing in rats; assay type: in vivo; conditions: both sexes, Sprague Dawley, rat, SD rats, oral gavage, day 15, 3 h post-dose
Protocol: To examine tissue concentrations following oral dosing, 5 male and 5 female Sprague Dawley (SD) rats were administered 404-02 at 1, 10, 50 or 150 mg/kg/day via oral gavage. Doses were prepared in sesame oil and individualized to body weight on the day of dosing. Animals were sacrificed 3 hours post-dose on day 15 of study following harvest of brain and lung specimens. Each sample collected was rinsed in 1× isotonic phosphate buffered saline and blotted dry before weighing. Tissue slices were transferred to cryovials and stored at −80° C. until processing and LC-MS/MS analysis. Standard curves were derived for 404-02 in these tissues.

[2] = Aqueous solubility determination (Multiscreen solubility filter plate, UV/vis); assay type: physicochemical; conditions: universal aqueous buffer, pH 7.4, aqueous buffer, kinetic from dmso stock, universal aqueous buffer pH 7.4, 90 min, room temperature
Protocol: Aqueous Solubility Determination. The following procedure was used to obtain the aqueous solubility results summarized in Example 8. Step 1. Determination of optimal UV/vis wavelengths and generation of standard curves for a compound of interest: • (1) For eight standard calibration curves (one plate), prepare 34 mL of 50:50 (v:v) universal buffer:acetonitrile in a 50 mL tube. • (2) Using a multichannel pipet, dispense (in μL) the buffer:acetonitrile in a deep well plate as follows:
• (6) Cover plate with lid and shake (200-300 rpm) at room temperature for 20 minutes. • (7) Mix all wells by pipetting up and down 10 times. • (8) Transfer 120 μL from each well to a UV transparent plate. Cover and shake for 3-5 minutes. Remove any bubbles in the wells using a pipet. • (9) Read from 220 nm to 500 nm at 10 nm increments on a spectrophotometer (e.g., SpectraMax®).
Step 2. Compound Solubility Testing Procedures Using the Millipore™ Multiscreen® Solubility Filter Plate.
Universal Aqueous Buffer: • (a) To prepare 500 mL of universal buffer, add the following: 250 mL Nanopure water; 1.36 mL (45 mM) ethanolamine; 3.08 g (45 mM) potassium dihydrogen phosphate; 2.21 g (45 mM) potassium acetate; thoroughly mix. • (b) Adjust pH to 7.4 with HCl and q.s. to 500 mL with 0.15 M KCl. • (c) Filter to remove particulates and reduce bacterial growth. • (d) Store at 4° C. in the dark.
Solubility Protocol: • (a) Add 285 μL of Universal Aqueous Buffer to desired wells of the Millipore™ Multiscreen® Solubility filter plate. • (b) Add 15 μL of 10 mM compound in DMSO to the appropriate wells. Add 15 μL of 100% DMSO only to 6 wells of the filter plate for blanks. • (c) Using a multichannel pipet, mix wells by pipetting up and down 10 times. Be careful not to touch the filters in the plate with the tips. • (d) Cover and gently shake (200-300 rpm) filter plate for 90 minutes at room temperature. • (e) Vacuum filter the aqueous solution from the Multiscreen® solubility filter plate into a polypropylene V-bottom plate. • (f) Transfer 60 μL of filtrate to a UV transparent plate (Greiner® UV-Star Analysis Plate). • (g) Add 60 μL of acetonitrile to each well and mix by pipetting up and down 10 times. • (h) Cover and gently shake for 3-5 minutes. Remove any bubbles with a pipet. • (i) Measure the absorbance of each well in the plate on the spectrophotometer (UV/vis) at the desired wavelength. For compounds in a plate with different absorbance peaks, set the spectrophotometer to read a spectrum (e.g., from 220 nm to 460 nm). • (j) Identify concentration using measured absorbance for each compound and the predetermined standard curve (see Step 1).

NQO1 = assay: Nrf2 target gene induction, NQO1; assay type: cell-based, human; conditions: MDA-MB-435 cells, 250 nM; fold induction above DMSO control
[3] = CNS and lung tissue concentrations after oral dosing in monkeys; assay type: in vivo; conditions: cynomolgus monkey; for excess of mean CNS concentration compared to the dose necessary to suppress inflammation in vitro: vs NO IC50 about 45 nM; for Mean 404-02 CNS Tissue Content (ng/g) ± SEM: day 15, about 3 h after dosing; for Mean 404-02 CNS Tissue Concentration (nM) ± SEM: conversion assumes tissue density 1 g/mL
Protocol: CNS and lung concentrations following oral dosing: 2 male and 2 female cynomolgus monkeys were administered 404-02 at 0.5, 5, 25 or 75 mg/kg/day doses via oral gavage, in addition to a control (non-treatment) group with 2 animals per sex. Animals were sacrificed approximately 3 hours after dosing on day 15 following harvest of brain and lung tissues. Each sample collected was rinsed in 1× isotonic phosphate buffered saline and blotted dry before weighing. Harvested tissue slices were transferred to cryovials and stored at −80° C. until processing and LC-MS/MS analysis. Standard curves were derived for 404-02 in homogenates of these tissues and were used to quantify the day 15 samples.

[4] = oral gavage, 0.5 mg/kg/day, day 15
[5] = oral gavage, 5 mg/kg/day, day 15
[6] = oral gavage, 25 mg/kg/day, day 15
[7] = oral gavage, 75 mg/kg/day, day 15

## CC1(C)CC[C@]2(C(=O)NCC(F)(F)F)CC[C@]3(C)[C@H](C(=O)C[C@@H]4[C@@]5(C)C=C(C#N)C(=O)C(C)(C)[C@@H]5CC[C@]43C)[C@@H]2C1 [Compound 63102, (4aS,6aR,6bR,8aR,12aR,12bR,14aR,14bS)-11-cyano-2,2,6a,6b,9,9,12a-heptamethyl-10,14-dioxo-N-(2,2,2-trifluoroethyl)-1,2,3,4,4a,5,6,6a,6b,7,8,8a,9,10,12a,12b,13,14,14a,14b-icosahydropicene-4a-carboxamide]
Ferritin heavy chain
  Ferritin heavy chain mRNA induction: concentration needed compared with unsaturated counterpart (402, 404): higher concentrations
[1]; brain (CNS tissue), 1 mg/kg/day, read-out: Mean 404-02 CNS Tissue Concentration (nM) ± SEM
  concentration at 3 h: 51 ± 11.8 nM
[1]; brain (CNS tissue), 1 mg/kg/day, read-out: Mean 404-02 CNS Tissue Content (ng/g = ng/mL) ± SEM
  concentration at 3 h: 29 ± 6.8 ng/g
[1]; brain (CNS tissue), 10 mg/kg/day, read-out: Mean 404-02 CNS Tissue Concentration (nM) ± SEM
  concentration at 3 h: 733 ± 173 nM
[1]; brain (CNS tissue), 10 mg/kg/day, read-out: Mean 404-02 CNS Tissue Content (ng/g = ng/mL) ± SEM
  concentration at 3 h: 421 ± 99 ng/g
[1]; brain (CNS tissue), 50 mg/kg/day, read-out: Mean 404-02 CNS Tissue Concentration (nM) ± SEM
  concentration at 3 h: 1310 ± 188 nM
[1]; brain (CNS tissue), 50 mg/kg/day, read-out: Mean 404-02 CNS Tissue Content (ng/g = ng/mL) ± SEM
  concentration at 3 h: 750 ± 108 ng/g
[1]; brain (CNS tissue), 150 mg/kg/day, read-out: Mean 404-02 CNS Tissue Concentration (nM) ± SEM
  concentration at 3 h: 1110 ± 143 nM
[1]; brain (CNS tissue), 150 mg/kg/day, read-out: Mean 404-02 CNS Tissue Content (ng/g = ng/mL) ± SEM
  concentration at 3 h: 640 ± 82 ng/g
[1]; lung, 1 mg/kg/day, read-out: Mean dh404 Lung Tissue Concentration (nM) ± SEM
  concentration at 3 h: 972 ± 215 nM
[1]; lung, 1 mg/kg/day, read-out: Mean dh404 Lung Tissue Content (ng/g = ng/mL) ± SEM
  concentration at 3 h: 558 ± 123 ng/g
[1]; lung, 10 mg/kg/day, read-out: Mean dh404 Lung Tissue Concentration (nM) ± SEM
  concentration at 3 h: 7020 ± 1620 nM
[1]; lung, 10 mg/kg/day, read-out: Mean dh404 Lung Tissue Content (ng/g = ng/mL) ± SEM
  concentration at 3 h: 4030 ± 928 ng/g
[1]; lung, 50 mg/kg/day, read-out: Mean dh404 Lung Tissue Concentration (nM) ± SEM
  concentration at 3 h: 12500 ± 2130 nM
[1]; lung, 50 mg/kg/day, read-out: Mean dh404 Lung Tissue Content (ng/g = ng/mL) ± SEM
  concentration at 3 h: 7160 ± 1220 ng/g
[1]; lung, 150 mg/kg/day, read-out: Mean dh404 Lung Tissue Concentration (nM) ± SEM
  concentration at 3 h: 16900 ± 2860 nM
[1]; lung, 150 mg/kg/day, read-out: Mean dh404 Lung Tissue Content (ng/g = ng/mL) ± SEM
  concentration at 3 h: 9720 ± 1640 ng/g
[2]
  solubility at 90 min: 0.06 µM (≈ 0.0345 µg/mL)
NQO1
  NQO1 induction: 2 fold
[3]; both sexes, lung, oral gavage, 25 mg/kg/day, day 15, read-out: Mean 404-02 Lung Tissue Concentration (nM) ± SEM
  concentration at 3 h: 246 ± 87 nM
[3]; 0.5 mg/kg/day
  excess of mean CNS concentration compared to the dose necessary to suppress inflammation in vitro: 48 fold
[3]; 5 mg/kg/day
  excess of mean CNS concentration compared to the dose necessary to suppress inflammation in vitro: 44 fold
[3]; 25 mg/kg/day
  excess of mean CNS concentration compared to the dose necessary to suppress inflammation in vitro: 37 fold
[3]; 75 mg/kg/day
  increase of mean lung tissue exposure compared to the dose necessary to suppress inflammation in vitro: 133 fold
  excess of mean CNS concentration compared to the dose necessary to suppress inflammation in vitro: 75 fold
[3]; [4]
  Mean 404-02 Lung Tissue Concentration (nM) ± SEM: 1227 ± 508 nM
  Mean 404-02 Lung Tissue Content (ng/g) ± SEM: 705 ± 292 ng/g
[3]; oral gavage, 0.5 mg/kg/day
  Mean 404-02 CNS Tissue Content (ng/g) ± SEM: 1198 ± 712 ng/g
[3]; [5]
  Mean 404-02 Lung Tissue Concentration (nM) ± SEM: 55 ± 27 nM
  Mean 404-02 Lung Tissue Content (ng/g) ± SEM: 24 ± 15 ng/g
  Mean 404-02 CNS Tissue Concentration (nM) ± SEM: 1900 ± 982 nM
[3]; oral gavage, 5 mg/kg/day
  Mean 404-02 CNS Tissue Content (ng/g) ± SEM: 1090 ± 564 ng/g
[3]; [6]
  Mean 404-02 Lung Tissue Content (ng/g) ± SEM: 141 ± 50 ng/g
  Mean 404-02 CNS Tissue Concentration (nM) ± SEM: 1618 ± 612 nM
[3]; oral gavage, 25 mg/kg/day
  Mean 404-02 CNS Tissue Content (ng/g) ± SEM: 930 ± 352 ng/g
[3]; [7]
  Mean 404-02 Lung Tissue Concentration (nM) ± SEM: 5929 ± 1435 nM
  Mean 404-02 Lung Tissue Content (ng/g) ± SEM: 3405 ± 824 ng/g
  Mean 404-02 CNS Tissue Concentration (nM) ± SEM: 3305 ± 864 nM
[3]; oral gavage, 75 mg/kg/day
  Mean 404-02 CNS Tissue Content (ng/g) ± SEM: 1898 ± 496 ng/g
